Results: patent publication US10472341B2, “Bicyclic tetrahydrothiazepine derivatives useful for the treatment of neoplastic and/or infectious diseases” (APEIRON BIOLOGICS AG, priority 2015, dated 2019)

Test system: CD4 T cells
Assay: TCR-mediated activation of isolated CFSE-labeled CD4 T cells (anti-CD3/anti-CD28): cytokines, proliferation, CD25
Format: cell-based, human
Conditions: for CD25 expression [% positive cells] Average / Cell Proliferation [Cell divisions/cell] Average / IFN-gamma production [ng/ml] Average / IL-2 production [ng/ml] Average / TNF-alpha production [ng/ml] Average: anti-CD3/anti-CD28
Method: • Buffy coat content was transferred to sterile plastic bottle and filled up to 480 ml with PBS, and distributed equally to 16×50 ml tubes (30 ml/tube) • Underlayed with ˜11 ml Lymphoprep and centrifuged 20 min (2200 rpm) • The interphase containing lymphocytes was taken off with transfer pipette, cells were washed twice with PBS and pooled to one tube to determine cell count (Coulter Diff ACT) Isolation of Immune Cell Subfractions from PBMCs by MACS • PBMCs were resuspended in MACS buffer (80 μl MACS-buffer/10^7 cells) and cells were isolated with Auto-MACS device using respective kits following manufacturer's recommendations TCR Stimulation and Measurement of T Cell Activation
Isolated T cells were plated in Xvivo medium at 1.5*10 ^5 cells per in 96 well culture plates and TCR-stimulated with anti-CD3/28 mAbs in the presence of compound as indicated. Cytokine production was determined at 24 h or 48 h following TCR stimulation in cell culture supernatants using commercially available ELISA kits (BD and eBioscience) as recommended by the manufacturer. T cell proliferation and CD25 expression (CD25-PC5 reagent purchased from Beckman Coulter) was determined by flow cytometry (Beckman-Coulter FC500) and analysed with Kaluza Software. For measurement of CD69 expression, isolated CD4 and CD8 T cells were plated in Xvivo medium at […] per in 96 well culture plates and TCR-stimulated with anti-CD3/28 mAbs in the presence of compound. CD69 expression was determined at 24 h following TCR stimulation by flow cytometry (CD4eF450, CD8APCeF780 and CD69-PC7 reagent purchased from eBioscience) and analysed with Kaluza Software.
Isolated CD4 T cells were CFSE-labeled and stimulated with anti-CD3 and anti-CD28 antibodies.

Structure (SMILES): CCCCNC(=O)c1ccc2c(c1)N(Cc1ccc(OC(F)(F)F)cc1)C(=O)[C@@H](N)CS2(=O)=O.Cl [Example 67, (3R)-3-amino-N-butyl-1,1,4-trioxo-5-{[4-(trifluoromethoxy)phenyl]methyl}-2,3,4,5-tetrahydro-1λ^6,5-benzothiazepine-7-carboxamide hydrochloride]
- CD25 expression [% positive cells] Average (0.05 μM): 47.88 % positive cells
- Cell Proliferation [Cell divisions/cell] Average (0.05 μM): 0.49 Cell divisions/cell
- IFN-gamma production [ng/ml] Average (0.05 μM): 0.06 ng/mL
- IL-2 production [ng/ml] Average (0.05 μM): 0.13 ng/mL
- TNF-alpha production [ng/ml] Average (0.05 μM): 0.26 ng/mL
- CD25 expression [% positive cells] Average (0.1 μM): 50.80 % positive cells
- Cell Proliferation [Cell divisions/cell] Average (0.1 μM): 0.58 Cell divisions/cell
- IFN-gamma production [ng/ml] Average (0.1 μM): 0.10 ng/mL
- IL-2 production [ng/ml] Average (0.1 μM): 0.21 ng/mL
- TNF-alpha production [ng/ml] Average (0.1 μM): 0.42 ng/mL
- CD25 expression [% positive cells] Average (0.25 μM): 59.10 % positive cells
- Cell Proliferation [Cell divisions/cell] Average (0.25 μM): 0.84 Cell divisions/cell
- IFN-gamma production [ng/ml] Average (0.25 μM): 0.23 ng/mL
- IL-2 production [ng/ml] Average (0.25 μM): 0.56 ng/mL
- TNF-alpha production [ng/ml] Average (0.25 μM): 0.71 ng/mL
- CD25 expression [% positive cells] Average (0.5 μM): 69.50 % positive cells
- Cell Proliferation [Cell divisions/cell] Average (0.5 μM): 1.03 Cell divisions/cell
- IFN-gamma production [ng/ml] Average (0.5 μM): 0.40 ng/mL
- IL-2 production [ng/ml] Average (0.5 μM): 1.00 ng/mL
- TNF-alpha production [ng/ml] Average (0.5 μM): 1.12 ng/mL
- CD25 expression [% positive cells] Average (1 μM): 79.50 % positive cells
- Cell Proliferation [Cell divisions/cell] Average (1 μM): 1.20 Cell divisions/cell
- IFN-gamma production [ng/ml] Average (1 μM): 0.64 ng/mL
- IL-2 production [ng/ml] Average (1 μM): 2.50 ng/mL
- TNF-alpha production [ng/ml] Average (1 μM): 1.65 ng/mL
- CD25 expression [% positive cells] Average (2.5 μM): 77.71 % positive cells
- Cell Proliferation [Cell divisions/cell] Average (2.5 μM): 1.35 Cell divisions/cell
- IFN-gamma production [ng/ml] Average (2.5 μM): 1.46 ng/mL
- IL-2 production [ng/ml] Average (2.5 μM): 7.48 ng/mL
- TNF-alpha production [ng/ml] Average (2.5 μM): 4.11 ng/mL
- CD25 expression [% positive cells] Average (5 μM): 79.53 % positive cells
- Cell Proliferation [Cell divisions/cell] Average (5 μM): 1.40 Cell divisions/cell
- IFN-gamma production [ng/ml] Average (5 μM): 2.22 ng/mL
- IL-2 production [ng/ml] Average (5 μM): 11.11 ng/mL
- TNF-alpha production [ng/ml] Average (5 μM): 5.47 ng/mL
- CD25 expression [% positive cells] Average (10 μM): 79.64 % positive cells
- Cell Proliferation [Cell divisions/cell] Average (10 μM): 1.38 Cell divisions/cell
- IFN-gamma production [ng/ml] Average (10 μM): 2.81 ng/mL
- IL-2 production [ng/ml] Average (10 μM): 13.62 ng/mL
- TNF-alpha production [ng/ml] Average (10 μM): 7.19 ng/mL
- CD25 expression [% positive cells] Average (20 μM): 75.14 % positive cells
- Cell Proliferation [Cell divisions/cell] Average (20 μM): 1.33 Cell divisions/cell
- IFN-gamma production [ng/ml] Average (20 μM): 3.29 ng/mL
- IL-2 production [ng/ml] Average (20 μM): 15.11 ng/mL
- TNF-alpha production [ng/ml] Average (20 μM): 9.31 ng/mL
- T cell proliferation and expression of the surface activation marker CD25 (anti-CD3 and anti-CD28): enhanced
- production of key cytokines (IL-2, IFN-gamma, TNF-alpha) (anti-CD3 and anti-CD28): strongly enhanced
